Columns and labels:
Format in all cases: in vivo, rat
[1] = system: spontaneously hypertensive (SHR) rats; assay: Mean arterial pressure (MAP), daily for 14 days, in conscious catheterized hypertensive rats
Description: (§1) Additionally, daily soy isoflavone (SoyLife®, Acatris, Minneapolis, Minn.) supplementation was administered with BCX to both normotensive (WKY) and spontaneously hypertensive (SHR) rats to determine any beneficial hemodynamic contributions of soy to genetic hypertension. Animals receiving daily oral doses of BCX or BCX combined with the soy extract and comparisons of specific hemodynamic parameters (heart rate and blood pressure) were monitored for a period of two weeks in SHR rats and their genetically WKY counterparts. Plasma hydrogen peroxide concentrations were evaluated and show the effects of BCX on reactive oxygen species and their purported contribution to elevations in blood pressure in this hypertensive animal paradigm (Wilcox C. S., Reactive oxygen species: roles in blood pressure and kidney function. Curr Hypertens Rep. 2002 April; 4(2):160-6).
(§2) 1. Three days prior to the beginning of experiments, femoral arterial and venous catheters were implanted for the measurement of blood pressure and heart rate and for the collection of blood samples for the analysis of plasma CRP and cholesterol. Animals were housed in metabolic cages for chronic daily analysis for the remainder of the protocol.
(§3) SHR and WKY rats (Harlan, Indianapolis, Ind.) at age 10 weeks and weighing ˜250 g were used as experimental subjects and monitored for a two week period. All experimental protocols were performed in conscious, unrestrained animals. The animals were individually housed in wire mesh cages in temperature-controlled rooms (23° C.) with a 12-hour light/dark cycle. Each animal was allowed free access to isoflavone reduced chow (Harlan, Indianapolis, Ind.) and distilled water throughout the protocol(s). In addition to ad libitum food and water, animals were dosed daily by oral gavage with BCX (1.0 mg/kg, in safflower oil) or BCX+soy (1.0 mg BCX/kg+80 mg isoflavones/kg, in safflower oil). BCX dosage levels were based on the amount of BCX humans consume when eating according to the Dietary Guidelines for Americans: 0.5-1.0 mg per day (United States Department of Health and Human Services and United States Department of Agriculture. Dietary Guidelines for Americans 2005. Jan. 12, 2005. http://www.healthierus.gov/dietaryguidelines/; Centers for Disease Control and Prevention. National Center for Health Statistics. National Health and Nutrition Examination Survey Data 2001-2002. http://www.cdc.gov/nchs/about/major/nhanes/nhanes01-02.htm).
All surgical procedures were performed in animals anesthetized with sodium pentobarbital (Nembutal®, Abbott Laboratories) at a dose of 50 mg/kg, i.p. In addition, all surgery was performed under sterile conditions in a location in the laboratory dedicated for that purpose and according to those procedures adopted by the IACUC at Des Moines University-Osteopathic Medical Center. The implantations of femoral arterial and venous catheters were performed three days prior to any experimentation. The arterial and venous catheters were constructed from silicone and Tygon® tubing (Saint-Gobain Performance Plastics Corporation). The smaller silicone tubing was placed within the vessel, via the external iliac artery, to minimize tissue irritation and reaction. Normal body temperature was maintained during anesthesia via an electronically maintained dermal pad. The animals were shaved at the top of the head, back of the neck and the inner left leg. The silicone tips were inserted through a 3.0 cm incision made on the inner left leg for cannulation of the internal iliac vein and femoral artery; the arterial catheter was sutured to the leg in a manner preventing occlusion of the catheter during normal rat movement. Excess catheter was directed subcutaneously and externalized through a 2.5 cm incision made in the dermis overlying bregma. The cranial incision was made with a scalpel after which three 0.19″ jeweler's screws were attached to the cranium in a 1.0 cm^2 area which encompasses bregma. […]

normotensive (WKY) rats [2] = assay: Mean arterial pressure (MAP), daily for 14 days, in conscious catheterized normotensive rats; conditions: for Blood pressure, Significance, comparison over 14 days: WKY rats
Description: as §1, §2
(§4) SHR and WKY rats (Harlan, Indianapolis, Ind.) at age 10 weeks and weighing ˜250 g were used as experimental subjects and monitored for a two week period. All experimental protocols were performed in conscious, unrestrained animals. The animals were individually housed in wire mesh cages in temperature-controlled rooms (23° C.) with a 12-hour light/dark cycle. Each animal was allowed free access to isoflavone reduced chow (Harlan, Indianapolis, Ind.) and distilled water throughout the protocol(s). In addition to ad libitum food and water, animals were dosed daily by oral gavage with BCX (1.0 mg/kg, in safflower oil) or BCX+soy (1.0 mg BCX/kg+80 mg isoflavones/kg, in safflower oil). […]

[3] = system: spontaneously hypertensive (SHR) rats; assay: Heart rate (HR), daily for 14 days, in conscious catheterized hypertensive rats; conditions: for Effect on heart rate (in words): vs. control fed food only (SHR-Control)
Description: as §1, §2, §3
All surgical procedures were performed in animals anesthetized with sodium pentobarbital (Nembutal®, Abbott Laboratories) at a dose of 50 mg/kg, i.p. In addition, all surgery was performed under sterile conditions in a location in the laboratory dedicated for that purpose and according to those procedures adopted by the IACUC at Des Moines University-Osteopathic Medical Center. The implantations of femoral arterial and venous catheters were performed three days prior to any experimentation. The arterial and venous catheters were constructed from silicone and Tygon® tubing (Saint-Gobain Performance Plastics Corporation). The smaller silicone tubing was placed within the vessel, via the external iliac artery, to minimize tissue irritation and reaction. Normal body temperature was maintained during anesthesia via an electronically maintained dermal pad. The animals were shaved at the top of the head, back of the neck and the inner left leg. […]

normotensive (WKY) rats [4] = assay: Heart rate (HR), daily for 14 days, in conscious catheterized normotensive rats
Description: as §1, §2, §4

[5] = vs. SHR-Control (rat chow only)
[6] = vs. SHR-Saff (safflower oil only)
[7] = vs. WKY-Saff (safflower oil only)

Which results are given for CC1=C(/C=C/C(C)=C/C=C/C(C)=C/C=C/C=C(C)/C=C/C=C(C)/C=C/C2=C(C)C[C@@H](O)CC2(C)C)C(C)(C)CCC1 [BCX, β-cryptoxanthin]?
Days with statistically significant difference in blood pressure ([1]; vs. SHR controls, p<0.05): 4 to 13 days; Blood pressure, Significance, comparison over 14 days [1, 5]: Yes; Blood pressure, Significance, comparison over 14 days [1, 6]: No; Effect on mean arterial pressure / blood pressure (in words) ([1]; vs. control fed food only (SHR-Control)): statistically decreased the blood pressure; Effect on mean arterial pressure / blood pressure (in words) ([1]; vs. control fed food only (SHR-Control), listed as β-cryptoxanthin): significantly lower; Effect on mean arterial pressure / blood pressure (in words) ([1]; vs. safflower oil control (SHR-Saff)): significantly lower; Change in blood pressure (in words) (normotensive (WKY) rats [2]; WKY normotensive rats, over 14 days of supplementation): did not show any significant blood pressure change; Blood pressure, Significance, comparison over 14 days (normotensive (WKY) rats [2]; vs. WKY-Control): No; Blood pressure, Significance, comparison over 14 days (normotensive (WKY) rats [2]; [7]): No; Heart rate, Significance, comparison over 14 days [3, 5]: Yes; Days with statistically significant lower heart rate ([3]; vs. SHR-Control, p<0.05): 6 to 13 days; Heart rate, Significance, comparison over 14 days [3, 6]: No; Effect on heart rate (in words) [3]: statistically decreased the heart rate; Effect on heart rate (in words) ([3]; listed as β-cryptoxanthin): significantly lower; Effect on heart rate (in words) (normotensive (WKY) rats [4]; vs. WKY-Control): statistical decrease in heart rate; Heart rate, Significance, comparison over 14 days (normotensive (WKY) rats [4]; vs. WKY-Control): Yes; Heart rate, Significance, comparison over 14 days (normotensive (WKY) rats [4]; [7]): No
